# According to US10723777B2, “Peptide having anti-obesity and anti-diabetes efficacy and use thereof” (CAREGEN CO., LTD., priority 2016, dated 2020):
# Tests used:
# [1] = test system: pre-adipocytes 3T3-L1 cells; assay: Inhibition of fat accumulation using pre-adipocyte (Oil Red O staining); type: cell-based, mouse; conditions: 3T3-L1, differentiation induced 10 days, various concentrations
# Experimental: The pre-adipocytes 3T3-L1 cells were incubated until becoming confluent, and then incubated for two days after treatment with various concentrations of the peptides in a differentiation medium containing 10 μg/ml insulin, 0.1 μM dexamethasone, and 0.5 μM IBMX. Thereafter, the medium was exchanged every two days to a medium containing 10 μg/ml insulin. After differentiation was induced for 10 days, the generation of droplet in the cells was confirmed by Oil Red 0 staining.
# The prepared 3T3-L1 pre-adipocytes were washed with PBS, fixed with 3.7% formalin for 1 hour, were washed with 60% isopropanol, and then were dyed with Oil Red O solution at room temperature for 20 minutes. After completion of dyeing, the Oil Red O solution was removed, the cells were washed three times with distilled water, and then the dyed cells were observed under a phase contrast microscope. For quantitative analysis, fats were extracted from the cells using 100% isopropanol, and the cells were transferred in an amount of 200 μl/well into 96-well plates and measured for optical density at 500 nm using an ELISA reader.
# [2] = test system: DB/DB diabetes-induced mice; assay: Blood sugar levels over time in DB/DB diabetes-induced mice administered with the peptides; type: in vivo, mouse; conditions: for blood sugar levels: High-Fat Diabetes DB/DB mice; for blood sugar levels (course over time): DB/DB mice
# Experimental: In addition, after starvation for 16 hours, DB/DB diabetes-induced mice were fed for 30 minutes and then administered with the peptides. Blood sugar levels were measured over times and the results are shown in FIGS. 22 and 23 and Tables 7 and 8.
# [3] = test system: adipogenic markers (PPARγ, ACC, and aP2) in 3T3-L1 cells; assay: Suppression of expression of genes involved in adipogenesis (RT-PCR); type: cell-based, mouse; conditions: TNFα 100 ng/ml; for expression levels of the adipogenic marker aP2 (gene): peptides/peptide complexes 0.1, 1, 10 μg/ml
# Experimental: 3T3-L1 cells (pre-adipocytes) were seeded at a density of 3×10^5 cells/well into 6-well plates. After incubating for 24 hours, the cells were incubated for 14 days in a 37° C. incubator after treatment with various concentrations (0.1, 1, and 10 μg/ml) of the peptides. Thereafter, the cells were harvested and treated with an RNA extraction solution (Easy Blue, Intron) to prepare for RNA from which cDNA was then synthesized using an RT premix (Intron). PCR was performed using primers for the adipogenic markers (PPARγ, ACC, and aP2), and a PCR premix (Intron). Next, the PCR products were each loaded in an amount of 5 μl into a 1% agarose gel and electrophoresis was performed, and then bands were identified in a Gel-Doc.
# Target-specific primer sequences for PCR of adipogenic markers are as follows: […]
# [4] = test system: DIO C57BL/6 mouse fed high-fat diet; assay: Adipogenesis-suppressive and lipolysis-promotive effect in DIO (diets induced obesity) mice; type: in vivo; conditions: micro-CT; HDF (10 weeks) + treatment (8 weeks)
# [5] = test system: DIO C57BL/6 mouse fed high-fat diet; assay: as above; type: in vivo
# Experimental: Obesity-induced Models DIO (diets induced obesity), which had become obese by feeding high-fat diets to normal C57BL/6 mouse, were used for the anti-obesity experiment in which 5 μg/ml of TNFα was used as a positive control drug. For a control, a general diet, not a high-fat diet, was fed. In this experiment, a high-fat diet was fed for 12 weeks, while the peptide complexes or the positive control drug were applied. During the experiment, the weight loss was confirmed.
# TNFα and the anti-obesity active compounds were intraperitoneally injected at 3:00 to 4:00 pm every week for 12 weeks. Body weights and dietary amounts were measured just before the first drug injection, and then measured at weekly intervals.
# Blood samples were collected from the tail vein after the end of the drug injection experiment, and then blood sugar levels were measured using Accu-Check Active (Roche) and cholesterol levels were analyzed using Cholesterol calculation Kit (BioVision).
# Adipose tissues are classified into white fat and brown fat depending on the color and are classified into subcutaneous fat, abdominal fat, mesentery fat (visceral fat), and epididymal fat depending on the site. After dissection, each fat was extracted. For histological examination, the fats were fixed with 10% neutral buffered formalin, embedded in paraffin blocks, cut into […] sections, and dyed with hematoxylin and eosin.
# To analyze the degree of phosphorylation of the lipolytic factor HSL, fluorescent staining was carried out using an anti-pHSL antibody. The tissue samples were prepared, mounted on glycerine jell mounting media, and covered with a cover glass. The tissues were taken with a digital camera built into a microscope (Nikon, TS100) and images were observed under the microscope.
# [6] = peptide complexes 0.1, 1, 10 μg/ml
substance,measurement,setting,value
KGACTGWMA (Peptide 2) [SEQ ID NO: 2],degree of fat accumulation in the cells (Oil Red O staining),[1],decreased
same,blood sugar levels,[2]; 30 minutes,219 mg/dL
same,blood sugar levels,[2]; 60 minutes,231 mg/dL
same,blood sugar levels,[2]; 120 minutes,174 mg/dL
same,blood sugar levels,[2]; 240 minutes,158 mg/dL
same,blood sugar levels,[2]; 300 minutes,152 mg/dL
same,blood sugar levels (course over time),[2],lowered in a time-dependent manner
same,blood sugar levels,[2]; Fasting,181 mg/dL
same,expression levels of the adipogenic marker aP2 (gene),[3],decreased
TNFα,Total Fat,[4],4165.80 mm^3
same,Total Volume,[4],8240.67 mm^3
same,Visceral Fat,[4],2833.72 mm^3
same,body weight,"[5]; Week 0, high-fat diet",22.41 g
same,body weight in percentage,"[5]; Week 0, high-fat diet",100%
same,body weight,"[5]; Week 1, high-fat diet",23.00 g
same,body weight in percentage,"[5]; Week 1, high-fat diet",102.6%
same,body weight,"[5]; Week 2, high-fat diet",26.12 g
same,body weight in percentage,"[5]; Week 2, high-fat diet",116.6%
same,body weight,"[5]; Week 3, high-fat diet",27.45 g
same,body weight in percentage,"[5]; Week 3, high-fat diet",122.5%
same,body weight,"[5]; Week 4, high-fat diet",30.51 g
same,body weight in percentage,"[5]; Week 4, high-fat diet",136.1%
same,body weight,"[5]; Week 5, high-fat diet",32.76 g
same,body weight in percentage,"[5]; Week 5, high-fat diet",146.2%
same,body weight,"[5]; Week 6, high-fat diet",33.49 g
same,body weight in percentage,"[5]; Week 6, high-fat diet",149.4%
same,body weight,"[5]; Week 7, high-fat diet",35.14 g
same,body weight in percentage,"[5]; Week 7, high-fat diet",156.8%
same,body weight,"[5]; Week 8, high-fat diet",37.15 g
same,body weight in percentage,"[5]; Week 8, high-fat diet",165.8%
same,body weight,"[5]; Week 9, high-fat diet",38.97 g
same,body weight in percentage,"[5]; Week 9, high-fat diet",173.9%
same,body weight,"[5]; Week 10, high-fat diet",40.39 g
same,body weight in percentage,"[5]; Week 10, high-fat diet",180.2%
same,body weight,"[5]; Week 11, high-fat diet",41.35 g
same,body weight in percentage,"[5]; Week 11, high-fat diet",184.5%
same,body weight,"[5]; Week 12, high-fat diet",43.91 g
same,body weight in percentage,"[5]; Week 12, high-fat diet",195.9%
same,Subcutaneous Fat,"[5]; micro-CT, HDF (10 weeks) + treatment (8 weeks)",1332.08 mm^3
same,expression levels of the adipogenic marker ACC (gene),[3]; [6],decreased
same,expression levels of the adipogenic marker PPARγ (gene),[3]; [6],decreased
same,expression levels of the adipogenic marker aP2 (gene),[3],decreased
ACYLPHPWFC (Peptide 4) [SEQ ID NO: 4],degree of fat accumulation in the cells (Oil Red O staining),[1],decreased
same,blood sugar levels,[2]; 30 minutes,249 mg/dL
same,blood sugar levels,[2]; 60 minutes,229 mg/dL
same,blood sugar levels,[2]; 120 minutes,215 mg/dL
same,blood sugar levels,[2]; 240 minutes,180 mg/dL
same,blood sugar levels,[2]; 300 minutes,165 mg/dL
same,blood sugar levels (course over time),[2],lowered in a time-dependent manner
same,blood sugar levels,[2]; Fasting,222 mg/dL
same,expression levels of the adipogenic marker aP2 (gene),[3],decreased
